From patent US8268635B2, “Methods of identifying agents that selectively activate p38 and/or NKkB signaling” (priority 2006, dated 2012)
Where no end group is shown, it is not given here.

Legend:
ERK1/ERK2 = ERK1/ERK2 activation in neutrophils in suspension; assay type: cell-based, human; details: TNF, TNF70-80 15 min; PMA 100 nM 5 min
Procedure: (§1) The cells were lysed and the lysate assessed by western blot analysis for the level of dual-phosphorylated ERK1/ERK2 (top panel) and ERK2 protein (bottom panel). […] The level of myelin basic protein phosphorylation was quantitated by an Instant Imager.
Neutrophils were prepared from peripheral blood of healthy donors by a rapid single-step technique (Kumaratilake, L. M., Rathjen, D. A., Mack, P., Widmer, F., Prasertsiriroj, V., and Ferrante, A. (1995) J. Clin. Invest. 95: 2315-2323) using Hypaque-Ficoll and according to the institution's guidelines on human ethics. […]
KHS (hereon referred to as “GCKR”) activity was assayed as described previously using myelin basic protein as a substrate (Shi, C. S., Leonardi, A., Kyriakis, J., Siebenlist, U., and Kerhl, J. H. (1999) J. Immunol. 163: 3279-3285). ASK-1 activation was determined in immunoprecipitates of ASK-1 by autophosphorylation (Kyriakis, J. M., and Auruch, J. (2001) Physiol. Rev. 81: 807-869). p38 and ERK activities were determined as described using myelin basic protein as a substrate (Hii, C. S., Huang, Z. H., Bilney, A., Costabile, M., Murray, A. W., Rathjen, D. A., Der, C. J., and Ferrante, A. (1998) J. Biol. Chem. 273: 19277-19282). […]

neutrophils = experiment: Neutrophil superoxide production, lucigenin chemiluminescence assay; assay type: cell-based, human
Procedure: Neutrophils were pre-treated with varying concentrations of SB203580 for 30 min and then exposed to 10 μM TNF70-80. The lucigenin enhanced chemiluminescence produced by the cells was measured in a luminometer. The peak initial rate of chemiluminescence produced is presented as the mean±sem of six experiments. The response in the presence of the inhibitor is expressed as a % of the control response.
Neutrophil superoxide production was measured as the chemiluminescence generated by the reduction of lucigenin, essentially as described previously (Kumaratilake, L. M., Rathjen, D. A., Mack, P., Widmer, F., Prasertsiriroj, V., and Ferrante, A. (1995) J. Clin. Invest. 95: 2315-2323). Briefly, to 1×10^6 neutrophils in 400 μl of HBSS was added 100 μl of stimulus and 500 μl of 250 μg/ml of lucigenin. The chemiluminescence was measured in a luminometer (Berthold Technologies, Bad Wildbad, Germany) over a 20 min period and the data imported into Microsoft Excel (Redmond, Wash.).
The cells were placed in a water-jacketed luminometer chamber (37° C.) (Autolumat Plus Model LB 953, Berthold Technologies, Bundoora, Australia) and the resulting light output recorded in millivolts (mV) at 10 second intervals. The data was analysed with Multiuser software (Berthold Tubemaster, Bundoora, Australia). The results are expressed as peak superoxide produced.
Various concentrations of TNFR1 fragment or diluent were added to neutrophils (106 in 100 μl HBSS) and incubated at 37° C. for 30 min 5% CO2 in air. After incubation 500 μl of lucigenin (250 μM, final), 100 μl of TNF70-80 (100 μg) were added and the final volume was adjusted to 1 ml.
Superoxide production by human neutrophils was measured by the reduction of the fluorescent lucigenin, (9,9′-bis(N-methyl-acridinium nitrate) (Sigma Chemical Company). This provides a direct and specific measure of agonist-induced superoxide production. Lucigenin-dependant chemiluminescence was measured as described previously Gyllenhannar H. (1987) J. Immunol. Methods 97:209-213. Briefly, 50 μl of 100 mg/ml of peptide or diluent and 250 ml of lucigenin was added to neutrophils (5×10^5 in 50 μl HBSS). The cells were placed in a water-jacketed luminometer chamber (37° C.) (Autolumat Plus Model LB 953, Berthold Technologies, Bundoora, Australia) and the resulting light output recorded in millivolts (mV) at 10 second intervals. The data was analysed with Multi-user software (Berthold Tubemaster, Bundoora, Australia).
Data are presented as mean±SEM of 3 experiments.

p38 [1] = experiment: p38 kinase activity in human neutrophils; assay type: cell-based
Procedure: as §1
Neutrophils were prepared from peripheral blood of healthy donors by a rapid single-step technique (Kumaratilake, L. M., Rathjen, D. A., Mack, P., Widmer, F., Prasertsiriroj, V., and Ferrante, A. (1995) J. Clin. Invest. 95: 2315-2323) using Hypaque-Ficoll and according to the institution's guidelines on human ethics. […] These were either used as cells in suspension or as adhered neutrophils by adding the cells to plasma coated plates as previously described (Powell, W., Gravel, S., Halwani, F., Hii, C. S., Huang, Z. H., Tan, A. M., and Ferrante, A. (1997) J. Immunol. 159: 2952-2959).
(§2) KHS (hereon referred to as “GCKR”) activity was assayed as described previously using myelin basic protein as a substrate (Shi, C. S., Leonardi, A., Kyriakis, J., Siebenlist, U., and Kerhl, J. H. (1999) J. Immunol. 163: 3279-3285). ASK-1 activation was determined in immunoprecipitates of ASK-1 by autophosphorylation (Kyriakis, J. M., and Auruch, J. (2001) Physiol. Rev. 81: 807-869). p38 and ERK activities were determined as described using myelin basic protein as a substrate (Hii, C. S., Huang, Z. H., Bilney, A., Costabile, M., Murray, A. W., Rathjen, D. A., Der, C. J., and Ferrante, A. (1998) J. Biol. Chem. 273: 19277-19282). […] A solid phase assay using glutathione-S-transferase (GST)-conjugated-jun (1-79) was employed to assay JNK activity (Hii, C. S., Huang, Z. H., Bilney, A., Costabile, M., Murray, A. W., Rathjen, D. A., Der, C. J., and Ferrante, A. (1998) J. Biol. Chem. 273: 19277-19282). Phosphorylated ASK-1, myelin basic protein and GST-jun (1-79) were fractionated on 8, 16 and 12% SDS polyacrylamide gels, respectively, and the bands were detected and radioactivity determined using an Instant Imager (Packard Instruments, Canberra, Australia).
(§3) The level of myelin basic protein phosphorylation was quantitated by an Instant Imager.

JNK = JNK phosphorylation in HL60 cells (western blot); assay type: cell-based; details: 15 min; TNF 100 U/ml, anisomycin 2.5 μg/ml
p38 [2] = experiment: p38 activity in HUVEC (immunoprecipitation, myelin basic protein substrate); assay type: cell-based, human; details: 5 min; TNF 1,000 U/ml, peptides 10 μM
Procedure: as §3, §2

p38 [3] = experiment: p38 activation in 70Z/3 cells transfected with hTNFR1 constructs; assay type: cell-based, mouse; details: 5 min; TNF 1000 U/ml, peptides 10 μM
Procedure: The cells were then lysed, protein contents quantified and subjected to p38 kinase assay by Western blot. The results are presented as the mean+−sem of 3 experiments.
The cells were maintained in RPMI-1640 medium with 4.5 g/L glucose, 2 mM L-glutamine, […] 2-mercaptoethanol and 10% FCS in an atmosphere of 95% air and 5% CO2. Cells were plated onto 10 cm plates at 4×10^7 cells in 15 ml culture medium. Before performing transient transfection, plasmid DNA (hTNFR1), kindly provided by Dr M. Kronke, Institute of Medical Microbiology and Hygiene, Medical Center University of Cologne, Koln, Germany (Adam, D., Wiegmann, K., Adam-Klages, S., Ruff A., and Kronke, M. (1996) J. Biol. Chem. 271: 14617-22), (20 μg in 1 ml of RPMI1640) was mixed with LipofectAMINE 2000 (Invitrogen) (60 μl in 1 ml of RPMI) and the mixture were left at room temperature for 20 min. The mixture was directly added to the cells and incubated for 24 h. The cells were washed twice with HBSS before use.

Q: CCCCCCCCCCCCCC(=O)O[C@@H]1[C@@H](C)[C@@]2(O)[C@@H](C=C(CO)C[C@]3(O)C(=O)C(C)=C[C@@H]23)[C@@H]2C(C)(C)[C@]12OC(C)=O [PMA, reference compound] was tested. Which “activity/dual phosphorylation of ERK in neutrophils in suspension” value (ERK1/ERK2) did it give?
A: Its value is “increased the dual phosphorylation of ERK1/ERK2”.

Q: How did the “effect on TNF70-80 stimulated neutrophil chemiluminescence response” value (neutrophils; pre-incubated with inhibitor 30 min, then 10 μM TNF70-80) turn out when C[S+]([O-])c1ccc(-c2nc(-c3ccncc3)c(-c3ccc(F)cc3)[nH]2)cc1 (stereo not drawn) [SB203580, reference compound] was run?
A: The value was “significantly reduced”.

Q: With EDSGTT [Peptide M4-3] as the molecule, how does the “effect on TNF (mononuclear leukocyte fluid)-induced p38 activation in human neutrophils” value (p38 [1]; peptide pre-incubated with TNF medium (≈0.12 ng/ml TNF) 20 min, neutrophils 30 min) read?
A: The value was “inhibition of TNF (mononuclear leukocyte fluid)-induced p38 activation”.

Q: Which “JNK phosphorylation in HL60 cells” value (JNK) does the source give for COc1ccc(C[C@H]2NC[C@H](O)[C@H]2OC(C)=O)cc1 [anisomycin, reference compound] here?
A: The value was “increased JNK phosphorylation”.

Q: “His6-Leu-Lys-Pro-Gly-Thr-Thr-OH (HHHHHHLKPGTT-OH; listed as Homo sapiens) [Peptide M4]” was tested. Which “effect on TNF70-80-induced superoxide production in neutrophils” value (neutrophils; TNFR1 fragment pre-incubated with neutrophils 30 min, then TNF70-80 (100 μg)) did it give?
A: The value was “can block the biological activity of the TNF70-80”.

Q: How did the “effect on TNF-induced superoxide generation of neutrophils” value (neutrophils; peptide mixed with TNF at 37° C. for 20 min, then added to neutrophils) turn out when “H-Gly-Thr-Thr-OH (listed as Homo sapiens) [Peptide M4-2]” was run?
A: The value was “Inhibits TNF-Induced Superoxide Generation”.

Q: “H-Gly-Gly-Asp-Pro-Gly-Ile-Val-Thr-His-Ser-OH (H-GGDPGIVTHS-OH) [control peptide 205, control peptide, reference compound]” was tested. Which “activity of p38 in HUVEC” value (p38 [2]) did it give?
A: Its value is “failed to stimulate p38”.

Q: And the “activity of p38 in neutrophils in suspension” value (p38 [1]; 5 min, TNF 100 or 1000 U/ml, TNF70-80 10-50 μM)?
A: The value was “did not activate p38”.

Q: What about the “p38 activation in 70Z/3 cells transfected with wild type hTNFR1” value (p38 [3]) of the same molecule?
A: The value was “failed to activate p38”.
